Source: patent US20110207723A1, “NOVEL FUSED AMINODIHYDROTHIAZINE DERIVATIVE” (EISAI R&D MANAGEMENT CO., LTD., priority 2008, published 2011)

What follows are molecules tested on Aβ42 production (assay: Quantification of Aβ peptide in culture of neurons from rat fetus brain (Aβ42 ELISA)). Settings: Neuron, 72 h, rat primary neuronal culture (embryonic day 18 Wistar rat cerebral cortex), medium collected three days after addition of compound, read-out: Aβ42 production reducing effect IC50.
Type: cell-based
Description: Quantification of Aβ Peptide in Culture of Neurons from Rat Fetus Brain
Primary neuronal cultures were prepared from the cerebral cortex of embryonic day 18 Wistar rats (Charles River Japan, Yokohama, Japan). Specifically, the embryos were aseptically removed from pregnant rats under ether anesthesia. The brain was isolated from the embryo and immersed in an ice-cold L-15 medium (such as Invitrogen Corp. Cat #11415-064, Carlsbad, Calif., USA, or SIGMA L1518). The cerebral cortex was collected from the isolated brain under a stereoscopic microscope. The cerebral cortex fragments collected were enzymatically treated in an enzyme solution containing 0.25% trypsin (Invitrogen Corp. Cat #15050-065, Carlsbad, Calif., USA) and 0.01% DNase (Sigma D5025, St. Louis, Mo., USA) at 37° C. for 30 minutes to disperse the cells. Here, the enzymatic reaction was stopped by adding inactivated horse serum to the solution. The enzymatically treated solution was centrifuged at 1,500 rpm for five minutes to remove the supernatant. 5 to 10 ml of a medium was added to the resulting cell mass. Neurobasal medium (Invitrogen Corp. Cat #21103-049, Carlsbad, Calif., USA) supplemented with 2% B27 supplement (Invitrogen Corp. Cat #17504-044, Carlsbad, Calif., USA), 25 μM 2-mercaptoethanol (2-ME, WAKO Cat #139-06861, Osaka, Japan), 0.5 mM L-glutamine (Invitrogen Corp. Cat #25030-081, Carlsbad, Calif., USA), and Antibiotics-Antimycotics (Invitrogen Corp. Cat #15240-062, Carlsbad, Calif., USA) was used as the medium (Neurobasal/B27/2-ME). However, the above Neurobasal medium not supplemented with 2-ME (Neurobasal/B27) was used for the assay. The cells were redispersed by mild pipetting of the cell mass to which the medium was added. The cell dispersion was filtered through a 40-μm nylon mesh (Cell Strainer, Cat #35-2340, Becton Dickinson Labware, Franklin Lakes, N.J., USA) to remove the remaining cell mass, and thus a neuronal cell suspension was obtained. The neuronal cell suspension was diluted with the medium and then plated in a volume of 100 μl/well at an initial cell density of 5×10^5 cells/cm^2 in a 96-well polystyrene culture plate pre-coated with poly-L or D-lysine (Falcon Cat #35-3075, Becton Dickinson Labware, Franklin Lakes, N.J., USA coated with poly-L-lysine using the method shown below, or BIOCOAT™ cell environments Poly-D-lysine cell ware 96-well plate, Cat #35-6461, Becton Dickinson Labware, Franklin Lakes, N.J., USA). Poly-L-lysine coating was carried out as follows. 100 μg/ml of a poly-L-lysine (SIGMA P2636, St. Louis, Mo., USA) solution was aseptically prepared with a 0.15 M borate buffer (pH 8.5). […] of the solution was added to the 96-well polystyrene culture plate and incubated at room temperature for one or more hours or at 4° C. overnight or longer. Thereafter, the coated 96-well polystyrene culture plate was washed with sterile water four or more times, and then dried or rinsed with, for example, sterile PBS or medium, and used for cell plating. The plated cells were cultured in the culture plate at 37° C. in 5% CO2-95% air for one day. Then, the total amount of the medium was replaced with a fresh Neurobasal/B27/2-ME medium, and then the cells were cultured for further three days.
The drug was added to the culture plate on Day 4 of culture as follows. The total amount of the medium was removed from the wells, and 180 μl/well of Neurobasal medium not containing 2-ME and containing 2% B-27 (Neurobasal/B27) was added thereto. A solution of the test compound in dimethyl sulfoxide (hereinafter abbreviated as DMSO) was diluted with Neurobasal/B27 to a concentration 10-fold higher than the final concentration. 20 μl/well of the dilution was added to and sufficiently mixed with the medium. The final DMSO concentration was 1% or less. Only DMSO was added to the control group.
The cells were cultured for three days after addition of the compound, and the total amount of the medium was collected. […]

In order of falling IC50:
1. NC1=N[C@@]2(c3cc(-c4cccnc4F)cs3)COCC[C@H]2CS1 (racemic) [Example 65, (±)-(4aR*,8aR*1-8a-[4-(2-fluoropyridin-3-yl)-thiophen-2-yl]-4,4a,5,6,8,8a-hexahydro-7-oxa-3-thia-1-azanaphthalen-2-ylamine]  370 nM
2. NC1=N[C@@]2(c3cc(-c4cccnc4F)ccc3F)COCC[C@H]2CS1 (racemic) [Example 61, (±)-(4aR*,8aS*)-8a-[2-fluoro-5-(2-fluoropyridin-3-yl)phenyl]-4,4a,5,6,8,8a-hexahydro-7-oxa-3-thia-1-azanaphthalen-2-ylamine]  319 nM
3. NC1=N[C@@]2(c3cc(NC(=O)c4cnc(OCF)cn4)ccc3F)COCC[C@H]2CS1 (relative stereo) [Example 2, N-[348S*,8aR*)-2-amino-4,4a,5,6-tetrahydro-7-oxa-3-thia-1-azanaphthalen-8a-yl)-4-fluorophenyl]-5-fluoromethoxypyrazine-2-carboxamide]  2 nM
4. N#Cc1ccc(C(=O)Nc2ccc(F)c([C@]34COCC[C@H]3CSC(N)=N4)c2)nc1 (relative stereo) [Example 1, N-[3-((4aR*,8aS*)-2-amino-4,4a,5,6-tetrahydro-7-oxa-3-thia-1-azanaphthalen-8a-yl)-4-fluorophenyl]-5-cyanopyridine-2-carboxamide]  1.7 nM
5. C[C@H]1C[C@H]2CSC(N)=N[C@@]2(c2cc(NC(=O)c3ccc(C(F)(F)F)cn3)ccc2F)CO1 (relative stereo) [Example 8, N-[3-((4aR*,6S*,8aS*)-2-amino-6-methyl-4,4a,5,6-tetrahydro-7-oxa-3-thia-1-azanaphthalen-8a-yl)-4-fluorophenyl]-5-trifluoromethylpyridine-2-carboxamide]  1.6 nM
6. C[C@H]1C[C@H]2CSC(N)=N[C@@]2(c2cc(NC(=O)c3ccc(Cl)cn3)ccc2F)CO1 (relative stereo) [Example 6, N-[3-((4aR*,6S*,8aS*)-2-amino-6-methyl-4,4a,5,6-tetrahydro-7-oxa-3-thia-1-azanaphthalen-8a-yl)-4-fluorophenyl]-5-chloropyridine-2-carboxamide]  1.2 nM
7. NC1=N[C@@]2(c3cc(NC(=O)c4cnc(OC(F)F)cn4)ccc3F)COCC[C@H]2CS1 (relative stereo) [Example 3, N-[3-((4aR*,8aS*)-2-amino-4,4a,5,6-tetrahydro-7-oxa-3-thia-1-azanaphthalen-8a-yl)-4-fluorophenyl]-5-difluoromethoxypyrazine-2-carboxamide]  1 nM
8. C[C@H]1C[C@H]2CSC(N)=N[C@@]2(c2cc(NC(=O)c3cnc(OCF)cn3)ccc2F)CO1 (relative stereo) [Example 10, N-[3-((4aR*,6S*,8aS*)-2-amino-6-methyl-4,4a,5,6-tetrahydro-7-oxa-3-thia-1-azanaphthalen-8a-yl)-4-fluorophenyl]-5-fluoromethoxypyrazine-2-carboxamide]  1 nM
9. C[C@H]1C[C@H]2CSC(N)=N[C@@]2(c2cc(NC(=O)c3ccc(C#N)cn3)ccc2F)CO1 (relative stereo) [Example 7, N-[3-((4aR*,6S*,8aS*)-2-amino-6-methyl-4,4a,5,6-tetrahydro-7-oxa-3-thia-1-azanaphthalen-8a-yl)-4-fluorophenyl]-5-cyanopyridine-2-carboxamide]  0.7 nM
10. COC[C@H]1C[C@H]2CSC(N)=N[C@@]2(c2cc(NC(=O)c3ccc(C#N)cn3)ccc2F)CO1 (relative stereo) [Example 11, N-[3-((4aR*,6R*,8aS*)-2-amino-6-methoxymethyl-4,4a,5,6-tetrahydro-7-oxa-3-thia-1-azanaphthalen-8a-yl)-4-fluorophenyl]-5-cyanopyridine-2-carboxamide]  0.7 nM
11. C[C@H]1C[C@H]2CSC(N)=N[C@@]2(c2cc(NC(=O)c3cnc(OC(F)F)cn3)ccc2F)CO1 (relative stereo) [Example 9, N-[3-((4aR*,6S*,8aS*)-2-amino-6-methyl-4,4a,5,6-tetrahydro-7-oxa-3-thia-1-azanaphthalen-8a-yl)-4-fluorophenyl]-5-difluoromethoxypyrazine-2-carboxamide]  0.6 nM
